{
  "source": "patent US12685739B2",
  "about": "“Compositions and methods for treating lung injury” (University of Maryland, Baltimore, priority 2020, dated 2026)",
  "key": {"[1]": {"tested_on": "murine model of ALI induced by intranasal ovalbumin (OVA)", "settings": "20 mg/kg, mice pre-sensitized to OVA; cited from earlier work"}, "[2]": {"tested_on": "rat model of ALI induced by IV administration of oleic acid (OA)", "settings": "75 mg/kg IP 1 hour before OA; cited from earlier work"}, "[3]": {"tested_on": "rat model of VILI with MV alone", "test": "rat model of VILI with mechanical ventilation alone", "settings": "10 μg/kg IP at start of MV, MV 4 hours (10 mL/kg), assessed at 24 hours, vs vehicle"}, "human neutrophils": {"tested_on": "human neutrophils", "test": "MRP8/14 exocytosis from activated human neutrophils, ELISA", "type": "cell-based", "parameters": "dose or concentration left out as unconfirmed", "settings": "co-incubation with glibenclamide, n=6", "method": "FIG. 9. […] Exocytosis of MRP8/14 from human neutrophils using ELISA was studied. […] Co-immunoprecipitation experiments were performed to determine whether SUR1 and MRP8/14 physically co-associate."}, "SUR1-regulated channels": {"tested_on": "SUR1-regulated channels", "settings": "in vitro, low-dose; read-out: EC50, inhibition of SUR1-regulated channels; cited from earlier work"}, "[4]": {"tested_on": "LPS-induced mouse model of ARDS", "test": "LPS-induced mouse model of ARDS", "type": "in vivo", "settings": "10 μg IP 2 hours after LPS and again 5 hours later, 24 hours after LPS, vs vehicle", "method": "At 24 hours after LPS induction, bronchioalveolar fluid (BALF) was analyzed for neutrophil infiltration, and lung tissues were analyzed for cytokine expression. […].\nAt 24 hours after LPS induction, bronchioalveolar fluid (BALF) was analyzed for neutrophil infiltration, and lung tissues were analyzed for S100A8/MRP8, which is released by neutrophils. As previously, LPS instilled into the lungs caused a massive invasion of neutrophils into the BALF, as well as dramatic accumulation of the S100A8/MRP8. […]"}, "[5]": {"tested_on": "rat model of ARDS plus MV", "test": "rat model of ARDS (intratracheal HCl) plus mechanical ventilation", "type": "in vivo", "method": "In other cases, a rat model of ARDS was used in which acute lung injury is induced by acid instillation, followed by mechanical ventilation. […] In a second experiment, a conventional rat model of ARDS plus MV was used. Rats were anesthetized and intubated. […] After inducing ALI, rats received MV for 4 hours, as above, except that VT=8 mL/kg. Rats were euthanized at 24 hours. […] MV (VT=8 mL/kg) was continued for 4 hours, following which rats were extubated, recovered from anesthesia and returned to their home cages. Lung function was evaluated at 24 hours. Rats were re-anesthetized. […] Rats were then re-intubated for MV. […] In a subgroup of rats, after completing the 24-hour lung function assessments, rats were euthanized, and the lungs were […] using 5 mL normal saline to obtain bronchioalveolar lavage fluid (BALF). BALF was analyzed for protein."}, "[6]": {"tested_on": "mouse model of ventilator-induced lung injury (VILI)", "settings": "50 mg/kg, VT=15 mL/kg; cited from earlier work"}, "[7]": {"settings": "50 μg/kg IP at onset of MV and at 6 hours, 24 hours, vs VEH"}},
  "data": [
    {"smiles": "COc1ccc(Cl)cc1C(=O)NCCc1ccc(S(=O)(=O)NC(=O)NC2CCCCC2)cc1", "note": "[glibenclamide]", "values": [
      {"measurement": "Th2 cytokines IL-5, IL-4 and IL-13 in BALF", "setting": "[1]", "value": "significantly reduced"},
      {"measurement": "levels of myeloperoxidase (MPO) and malondialdehyde (MDA)", "setting": "[2]", "value": "reduced levels"},
      {"measurement": "pulmonary interstitial edema, infiltration of neutrophils and mononuclear cells", "setting": "[2]", "value": "significantly alleviated"},
      {"measurement": "pulmonary edema (wet weight/dry weight)", "setting": "[3]", "value": "significantly reduced"},
      {"measurement": "pulmonary edema (wet weight/dry weight)", "setting": "[3]; listed as GLIB", "value": "significantly decreased pulmonary edema"},
      {"measurement": "pulmonary edema (wet weight/dry weight)", "setting": "[3]; listed as Glibenclamide", "value": "significantly decreased pulmonary edema"},
      {"measurement": "MRP8/14 exocytosis (release into extracellular media)", "setting": "human neutrophils; neutrophils stimulated with LPS", "value": "significantly reduced"},
      {"measurement": "MRP8/14 exocytosis (release into extracellular media)", "setting": "human neutrophils; neutrophils stimulated with PMA", "value": "significantly reduced"},
      {"measurement": "EC50", "setting": "SUR1-regulated channels", "value": 0.048, "unit": "µM"},
      {"measurement": "IL-6 in lung tissues", "setting": "[4]", "value": "significant reduction"},
      {"measurement": "MCP-1 in lung tissues", "setting": "[4]", "value": "significant reduction"},
      {"measurement": "S100A8/MRP8 in lung tissues", "setting": "[4]", "value": "significant reduction"},
      {"measurement": "neutrophils in BALF", "setting": "[4]", "value": "significant reduction"},
      {"measurement": "IL-6 in lung tissues", "setting": "[4]; listed as Glibenclamide", "value": "significant reductions"},
      {"measurement": "MCP-1 in lung tissues", "setting": "[4]; listed as Glibenclamide", "value": "significant reductions"},
      {"measurement": "dynamic lung compliance, pressure-volume curve", "setting": "[5]; [7]", "value": "the shift to the right was less pronounced"},
      {"measurement": "hemoglobin (Hgb) in lung tissues, immunoblot", "setting": "[5]; [7]", "value": "less hemorrhagic exudate"},
      {"measurement": "hemorrhagic exudates, gross appearance of lungs", "setting": "[5]; [7]", "value": "reduced hemorrhagic exudates"},
      {"measurement": "protein in BALF", "setting": "[5]; [7]", "value": "the increase was less pronounced"},
      {"measurement": "oxygen saturation (sO2), pulse oximetry", "setting": "[5]; 50 μg/kg IP at onset of MV and at 6 hours, at 24 hours, n=3", "value": "88±4.4", "unit": "%"},
      {"measurement": "cellular infiltrates, H&E-stained lung sections", "setting": "[5]; ARDS with MV, vs VEH", "value": "reduced cellular infiltrates"},
      {"measurement": "neutrophil invasion, immunohistochemistry for MPO", "setting": "[5]; lung tissues, vs VEH", "value": "less pronounced"},
      {"measurement": "quantification of MPO by immunohistochemistry and immunoblot", "setting": "[5]; lung tissues, vs VEH", "value": "significant reduction"},
      {"measurement": "NOS2 expression in lung tissues", "setting": "[5]; vs VEH", "value": "attenuated"},
      {"measurement": "TNF expression in lung tissues", "setting": "[5]; vs VEH", "value": "attenuated"},
      {"measurement": "BALF total protein, neutrophils, IL-1β, IL-6 and KC levels", "setting": "[6]", "value": "reduced"},
      {"measurement": "pulmonary edema", "setting": "[6]", "value": "reduced pulmonary edema"}
    ]}
  ]
}
